# Measured values published in patent US20240408005A1, “USE OF CALCIUM SENSING RECEPTOR ANTAGONISTS FOR TREATING OCULAR DISORDERS” (The Regents of the University of California, priority 2023, published 2024).
# What was measured:
# [1] = Tear fluid volume by endodontic absorbent paper point tear test (EAPPTT); assay type: in vivo, BALB/c mice; conditions: for EAPPTT wetting length: 0.001% single 10 μL dose, baseline 2.3±0.2 mm
# Method: […] All mice were kept at ambient conditions (approximately 50% humidity and 21° C.) and provided unrestricted access to food and water.
# CFTR = test: Ocular surface potential difference (OSPD), forskolin / CFTRinh-172 responses; assay type: in vivo, mouse
# Text: (§1) Using pharmacological activators and inhibitors, OSPD allows studying activities of various ion channels/transporters in the ocular surface.^12 In these studies, baseline OSPD is established using a high Cl^− solution that mimics the tear film. OSPD changes induced by amiloride (ENaC inhibitor) indicates Na^+ transport via ENaC. Similarly, OSPD changes induced by forskolin (cAMP agonist) and CFTRinh-172 (CFTR inhibitor) indicates Cl^− secretion via cAMP-activated Cl^− channels and particularly CFTR. Lastly, OSPD changes induced by Ca^2+ agonist ATP indicates Cl^− secretion mediated by CaCCs.
# Sequential perfusion of the ocular surface with solutions containing amiloride (ENaC inhibitor), forskolin (cAMP agonist), CFTRinh-172 (CFTR inhibitor), and ATP (Ca^2+ agonist) thus allows determining activities of ENaC, CFTR, and CaCC ion channels, respectively (FIG. 4A).
# The compositions of perfusion solutions follow the solutions used in the standardized human nasal and ocular potential difference protocol.^12,13 Solutions #1-3 (high Cl^−, amiloride, and low Cl^−, respectively) were made in 1-liter batches, pH balanced to 7.4, and filtered in a sterile environment prior to refrigeration and used within 3 months. Solution #1 (high Cl^−) contained 1 L Ringer's injection (containing 147 mM NaCl, 2 mM CaCl2), 4 mM KCl, 2.4 mM K2HPO4, 0.4 mM KH2PO4, and 1.2 mM MgCl2. 100 μM amiloride was added to Solution #1 to create Solution #2 (amiloride). Solution #3 (low Cl^−) was identical to Solution #1, except NaCl was replaced with sodium gluconate. Cinacalcet (CaSR agonist) and NPS-2143 (CaSR antagonist) were purchased from Tocris Bioscience (Minneapolis, MN, USA). All other chemicals were purchased from Sigma-Aldrich (St. Louis, MO, USA).
# Ocular surface potential difference (OSPD) and tear fluid volume measurements were performed in mice with topically applied cinacalcet (CaSR activator) and NPS-2143 (CaSR inhibitor). Mice were anesthetized with isoflurane and body temperature was maintained at 37° C. via a heating pad. As described previously,^12,14,15 open-circuit transepithelial potential differences were measured in response to serial perfusions of different isoosmolar (310 mOsm/kg H2O) solutions over the ocular surface at 5-10 ml/min. The measuring electrode was in contact with the perfusion catheter which was carefully positioned using a three-axis micromanipulator directly above the mouse ocular surface and the reference electrode was grounded via a 23-gauge butterfly needle agar bridge inserted subcutaneously in the back. Measuring and reference electrodes consisted of Ag/AgCl with 3 M KCl agar bridges, and both electrodes were connected to an ISO-Z headstage, BMA-200 high-impedance amplifier/voltmeter, and PowerLab analog-to-digital converter (ADInstruments; Colorado Springs, CO, USA) connected to a computer (FIG. 1). Each solution was perfused onto the ocular surface using a gravity perfusion system (ALA Scientific; Farmingdale, NY, USA) for 1-3 minutes until a stable OSPD reading was obtained.
# [2] = in vivo; cited from earlier work
# CaCC = test: Ocular surface potential difference (OSPD), ATP-induced hyperpolarization; assay type: in vivo, mouse
# Text: as §1, with “CaCCs. […]” for “CaCCs.”
# (§2) Ocular surface potential difference (OSPD) and tear fluid volume measurements were performed in mice with topically applied cinacalcet (CaSR activator) and NPS-2143 (CaSR inhibitor). […] As described previously,^12,14,15 open-circuit transepithelial potential differences were measured in response to serial perfusions of different isoosmolar (310 mOsm/kg H2O) solutions over the ocular surface at 5-10 ml/min. […] Each solution was perfused onto the ocular surface using a gravity perfusion system (ALA Scientific; Farmingdale, NY, USA) for 1-3 minutes until a stable OSPD reading was obtained.
# mouse ocular surface = test: Baseline ocular surface potential difference (OSPD); assay type: in vivo; conditions: topically administered, mice
# Text: as §1, with “CaCCs. […]” for “CaCCs.”
# as §2
# ENaC = test: Ocular surface potential difference (OSPD), amiloride-induced depolarization; assay type: in vivo, mouse; conditions: topical, 100 μM amiloride, 0-30 μM cinacalcet in all solutions
# Text: as §1, with “CaCCs. […]” for “CaCCs.”
# as §2
compound,measurement,setting,value
"CC(C)(Cc1ccc2ccccc2c1)NC[C@@H](O)COc1cccc(Cl)c1C#N [NPS-2143, 2-chloro-6-[(2R)-3-([1,1-dimethyl-2-(2-naphthalenyl)ethyl]amino)-2-hydroxypropoxy]benzonitrile]",increased tear fluid volume,"[1]; 0.001% or 30 μM, single 10 μL dose, 15 minutes after treatment",60%
same,EAPPTT wetting length,"[1]; 15 minutes after administration, mean±SEM",3.6±0.2 mm
same,EAPPTT wetting length,[1]; 8 hours after administration,3.6±0.2 mm
same,reversibility of effect on tear volume,[1]; 24 h after treatment,return of tear volume to near baseline values
same,increase of tear fluid volume,"[1]; single dose topical 0.001% or 30 μM, for at least eight hours",> 60%
same,reversal of response by CFTR inhibitor CFTRinh-172,"CFTR; 30 μM, 10 μM CFTRinh-172",partially reversed
same,hyperpolarization relative to subsequently applied maximal forskolin-induced hyperpolarization,"CFTR; 30 μM, 10 μM forskolin",70%
same,hyperpolarization (OSPD change),CFTR; perfusion of ocular surface with 30 μM,−13 mV
O=c1ccn([C@@H]2O[C@H](COP(=O)(O)OP(=O)(O)OP(=O)(O)OP(=O)(O)OC[C@H]3O[C@@H](n4ccc(=O)[nH]c4=O)[C@H](O)[C@@H]3O)[C@@H](O)[C@H]2O)c(=O)[nH]1 [diquafosol],outcome of clinical trials for DED,[2],did not meet the primary endpoints
C[C@@H](NCCCc1cccc(C(F)(F)F)c1)c1cccc2ccccc12 [cinacalcet],inhibition of ATP response,"CaCC; 30 μM cinacalcet, 100 μM ATP, without prior forskolin and CFTRinh-172, FIG. 5",~50%
same,lower ATP-induced hyperpolarization (CaCC activity),"CaCC; 100 μM ATP added after forskolin and CFTRinh-172, FIG. 4F",90%
same,effect on baseline OSPD,mouse ocular surface,no effect
same,effect on ENaC activity / Na+ absorption mediated by ENaC (amiloride-induced depolarization),ENaC,no effect
same,lower CFTRinh-172 response (CFTR activity),"CFTR; at 30 μM, 10 μM CFTRinh-172, FIG. 4E",up to 90%
same,lower forskolin response (CFTR activity),"CFTR; at 30 μM, 10 μM forskolin, FIG. 4D",up to 90%
same,inhibition of forskolin-induced Cl− secretion and CFTR activity,"CFTR; at 30 μM, concentration-dependent, topical, mice",up to 90%
